Assay [1] deals with T1, BTK (Homo sapiens, UniProt Q06187).
T1 construct: purchased Invitrogen
In words: z-lyte kinase assay, BTK. In kind it is biochemical. The procedure: (§1) The inhibiting activities of the inventive compounds obtained in Examples 1 to 237 against EGFR WT and EGFR L858R/T790M kinase were determined using z-lyte kinase assay kit (Invitrogen, PV3191). The kinases used in the test were purchased from Invitrogen.
(§2) The compounds obtained in Examples 1 to 237 were each prepared to 10 mM DMSO solution, and a solution containing 4% DMSO were prepared therefrom and diluted to a concentration of 1 μM to 0.0001 μM. […] The test was conducted in a 384 well polystyrene flat-bottomed plates. 5 μl of the diluted solution of each compound was added to each well, and 10 μl of a mixture of peptide substrate and kinase in a suitable concentration and 5 μl of 5˜300 μM ATP solution were successively added thereto and the plate was incubated in a stirrer at room temperature for 60 minutes. After 60 mins, 10 μl of coloring reagent was added to the resulting mixture to initiate a fluorescence reaction of peptide substrate and a terminating solution was added thereto for terminating the reaction. A fluorescence value of each well was determined with a fluorescence meter (Molecular Device) at 400 nm (excitation filter) and 520 nm (emission filter). […] The calculation of IC50 and the result analysis were carried out by using Microsoft Excel.
(§3) The inhibiting activities of the inventive compounds obtained in Examples 1 to 237 against BTK and JAK3 kinases were determined, respectively. The procedure of Test Example 2 was repeated except that BTK and JAK3 kinases (Invitrogen) were employed instead of using the EGFR kinase.

For assay [2], the system named is NCI-H1975 (EGFR L858R/T790M). In words: Inhibition test for growth of cancer cell expressing EGFR (MTS), NCI-H1975. The assay is classed as cell-based. To be noted: NCI-H1975 cells, 48 hours, MTS, read-out: GI50 NCI-H1975 EGFR L858R/T790M.
Experimental: A431 cell line was incubated in a high-glucose DMEM (Dulbecco's Modified Eagle's Medium) supplemented with 10% fetal bovine serum (FBS) and 1% penicillin/streptomycin (Gibco BRL), and HCC827 and NCI-H1975 cell lines were incubated in an RPMI medium supplemented with 10% FBS, 1% penicillin/streptomycin and 1% sodium pyruvate.
The cancer cell lines stored in a liquid nitrogen tank were each quickly thawed at 37° C., and centrifuged to remove the medium. The resulting cell pellet was mixed with a culture medium, incubated in a culture flask at 37° C. under 5% CO2 for 2 to 3 days, and the medium was removed. The remaining cells were washed with DPBS (Dulbecco's Phosphate Buffered Saline) and separated from the flask by using Tripsin-EDTA. […] 100 μl of the diluted cell solution was added to each well of a 96-well plate, and incubated at 37° C. under 5% CO2 for 1 day.
In case that the test compound was not soluble in DMSO, 1% HCl was added thereto and treated in a 40° C. water bath for 30 mins until a complete dissolution was attained. The DMSO solution containing test compound was diluted with a culture medium to a final concentration of 100 μM, and then diluted 10 times serially to 10^−6 μM (a final concentration of DMSO was less than 1%).
The medium was removed from each well of the 96-well plate. And then, 100 μl of a test compound solution was added to each well holding the cultured cells, and the plate was incubated at 37° C. under 5% CO2 for 72 hours (except that NCI-H1975 cells were incubated for 48 hours). After removing the medium from the plate, 50 μA of 10% trichloroacetic acid was added to each well, and the plate was kept at 4° C. for 1 hour to fix the cells to the bottom of the plate. The added 10% trichloroacetic acid solution was removed from each well, the plate was dried, 100 μA of an SRB (Sulforhodamine-B) dye solution at a concentration of 0.4% dissolved in 1% acetic acid was added thereto, and the resulting mixture was reacted for 10 mins at room temperature. After removing the dye solution, the plate was washed with water, and well dried. When the dye solution was not effectively removed by water, 1% acetic acid was used. 150 μA of 10 mM trisma base was added to each well, and the absorbance at 540 nm wavelength was determined with a microplate reader.
In assay [3] the test system is HCC827 (EGFR DelE746_A750). In words: Inhibition test for growth of cancer cell expressing EGFR (SRB), HCC827.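 Note: cells in 96-well plates exposed to tenfold serial dilutions from 100 µM, fixed with trichloroacetic acid, SRB-stained, absorbance read at 540 nm, DMSO under 1%.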 To be noted: HCC827 cells, 72 hours, SRB, read-out: GI50 HCC827 EGFR DelE746_A750. The assay is classed as cell-based.
For assay [4], the target named is T2, JAK3 (Homo sapiens, UniProt P52333).
T2 construct: purchased Invitrogen
T2 sequence (P52333 1-1124): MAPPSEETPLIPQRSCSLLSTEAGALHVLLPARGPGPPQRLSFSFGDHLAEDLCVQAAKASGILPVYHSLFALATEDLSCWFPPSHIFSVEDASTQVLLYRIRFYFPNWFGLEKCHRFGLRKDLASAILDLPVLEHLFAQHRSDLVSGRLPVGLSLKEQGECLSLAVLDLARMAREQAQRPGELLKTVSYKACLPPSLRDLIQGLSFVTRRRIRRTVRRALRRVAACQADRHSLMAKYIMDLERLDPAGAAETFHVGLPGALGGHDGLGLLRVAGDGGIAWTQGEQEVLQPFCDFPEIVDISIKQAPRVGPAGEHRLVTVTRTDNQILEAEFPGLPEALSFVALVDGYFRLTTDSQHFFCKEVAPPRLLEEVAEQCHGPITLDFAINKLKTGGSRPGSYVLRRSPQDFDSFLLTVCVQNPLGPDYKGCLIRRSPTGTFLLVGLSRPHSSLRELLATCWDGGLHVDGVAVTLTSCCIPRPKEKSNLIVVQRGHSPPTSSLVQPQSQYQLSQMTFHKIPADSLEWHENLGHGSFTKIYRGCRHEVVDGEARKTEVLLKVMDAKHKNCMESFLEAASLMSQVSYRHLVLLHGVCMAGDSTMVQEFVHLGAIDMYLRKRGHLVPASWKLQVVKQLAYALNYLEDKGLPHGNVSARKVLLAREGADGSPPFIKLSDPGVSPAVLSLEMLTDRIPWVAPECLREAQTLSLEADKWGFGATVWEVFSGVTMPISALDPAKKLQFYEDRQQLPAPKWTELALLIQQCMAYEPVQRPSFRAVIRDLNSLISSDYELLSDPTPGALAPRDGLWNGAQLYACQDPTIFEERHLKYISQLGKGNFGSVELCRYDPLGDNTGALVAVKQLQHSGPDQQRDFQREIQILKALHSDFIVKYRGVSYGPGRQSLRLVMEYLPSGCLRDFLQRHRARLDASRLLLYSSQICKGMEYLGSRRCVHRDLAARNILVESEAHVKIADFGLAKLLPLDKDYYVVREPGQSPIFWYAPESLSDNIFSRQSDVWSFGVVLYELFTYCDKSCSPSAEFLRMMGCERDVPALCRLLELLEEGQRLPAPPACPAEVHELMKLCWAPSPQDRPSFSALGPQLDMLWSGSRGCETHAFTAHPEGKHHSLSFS
In words: z-lyte kinase assay, JAK3. In kind it is biochemical. The procedure: as §1, §2, §3

The structures appear in SMILES notation. Read-outs that look alike come from different tables or passages of the source.

T1 sequence (Q06187 whole entry): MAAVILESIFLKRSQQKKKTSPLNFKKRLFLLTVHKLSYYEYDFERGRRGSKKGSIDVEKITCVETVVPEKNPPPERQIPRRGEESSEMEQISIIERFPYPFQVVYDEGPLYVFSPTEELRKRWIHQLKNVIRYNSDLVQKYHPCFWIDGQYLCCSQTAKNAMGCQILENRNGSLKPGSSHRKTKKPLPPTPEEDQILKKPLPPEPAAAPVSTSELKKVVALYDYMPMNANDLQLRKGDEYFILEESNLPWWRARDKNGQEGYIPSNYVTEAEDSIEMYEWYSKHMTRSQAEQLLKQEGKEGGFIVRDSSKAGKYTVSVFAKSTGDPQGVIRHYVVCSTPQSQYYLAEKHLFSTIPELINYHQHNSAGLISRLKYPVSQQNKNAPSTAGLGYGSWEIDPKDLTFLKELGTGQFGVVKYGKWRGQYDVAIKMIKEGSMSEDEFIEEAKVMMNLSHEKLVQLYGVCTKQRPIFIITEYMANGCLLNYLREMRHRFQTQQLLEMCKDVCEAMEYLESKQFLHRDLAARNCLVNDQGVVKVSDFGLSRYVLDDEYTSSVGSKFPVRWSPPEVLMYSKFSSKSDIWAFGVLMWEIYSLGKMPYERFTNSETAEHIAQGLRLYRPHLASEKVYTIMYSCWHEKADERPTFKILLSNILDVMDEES

Usually IC50 stands for the concentration that inhibits the measured activity by half. Lower therefore signals greater potency. For `C=CC(=O)Nc1cccc(Oc2nc(Nc3ccc(N4CC[C@@H](n5ccnc5)C4)cc3)nc3ccsc23)c1` [Example 36], the 50% inhibitory concentration (IC50) in assay [1] and in assay [4] was 0.05 to 0.1 µM throughout. Also, the GI50 in assay [2] is less than 0.05 µM; in assay [3], 0.05 to 0.1 µM.
Turning to `C=CC(=O)Nc1cccc(Oc2nc(Nc3ccc(CS(C)(=O)=O)cc3)nc3ccsc23)c1` [Example 95], the IC50 in assay [1] and in assay [4] was 0.05 to 0.1 µM in each case. Further, the GI50 in assay [2] (Homo sapiens) is less than 0.05 µM; in assay [3] (Homo sapiens, HCC827, 72 h), less than 0.05 µM.
With `C=CC(=O)Nc1cccc(Oc2nc(Nc3ccc(S(=O)(=O)NCCN(C)C)cc3)nc3ccsc23)c1` [Example 72], the IC50 in assay [1] and in assay [4] was no more than 0.05 µM throughout. Further, the GI50 in assay [2] (Homo sapiens) is less than 0.05 µM; in assay [3] (Homo sapiens, HCC827, 72 h), less than 0.05 µM.
Regarding `C=CC(=O)Nc1cccc(Oc2nc(Nc3ccc(CN4CCN(C)CC4)nc3)nc3ccsc23)c1` [Example 169], the IC50 in assay [1] was no more than 0.05 µM; in assay [4], 0.05 to 0.1 µM. In addition, the GI50 in assay [2] (Homo sapiens) was 0.05 to 0.1 µM; in assay [3] (Homo sapiens, HCC827, 72 h), less than 0.05 µM.
Take `C=CC(=O)Nc1cccc(Oc2nc(Nc3ccc(CC(=O)NC4CCN(C)CC4)cc3)nc3ccsc23)c1` [Example 103]: the IC50 in assay [1] and in assay [4] was no more than 0.05 µM each time. Moreover, the GI50 is less than 0.05 µM in assay [2] (Homo sapiens) and 0.1 to 1 µM in assay [3] (Homo sapiens, HCC827, 72 h).
In the case of `C=CC(=O)Nc1cccc(Oc2nc(Nc3ccc(N4CC5CC4CN5C)cc3)nc3ccsc23)c1` (stereo not shown) [Example 28], the IC50 in assay [1] and in assay [4] was no more than 0.05 µM throughout. Further, the GI50 in assay [2] (Homo sapiens) was less than 0.05 µM; in assay [3] (Homo sapiens, HCC827, 72 h), 0.05 to 0.1 µM.
Take `C=CC(=O)Nc1cccc(Oc2nc(Nc3ccc(C(=O)NC4CCN(C)CC4)c(C)c3)nc3ccsc23)c1` [Example 145]: the IC50 in assay [1] and in assay [4] was no more than 0.05 µM in each case.
Regarding `C=CC(=O)Nc1cccc(Oc2nc(Nc3ccc(C(=O)NCCN(C)C)cc3)nc3ccsc23)c1` [Example 79], the half-maximal inhibitory concentration (IC50) in assay [1] and in assay [4] was no more than 0.05 µM in each case. Also, the GI50 in assay [2] (Homo sapiens) is 0.1 to 1 µM; in assay [3] (Homo sapiens, HCC827, 72 h) it was less than 0.05 µM.
`C=CC(=O)Nc1cccc(Oc2nc(Nc3ccc(N4CCC(C(=O)O)CC4)cc3)nc3ccsc23)c1` [Example 44]: the IC50 in assay [1] and in assay [4] was 0.05 to 0.1 µM in each case.
For the compound `C=CC(=O)Nc1cccc(Oc2nc(Nc3ccc(NC4CCN(C(C)C)CC4)nc3)nc3ccsc23)c1` [Example 154], the IC50 in assay [1] was no more than 0.05 µM; in assay [4] it was 0.05 to 0.1 µM. Besides, the GI50 fell in the range of 0.05 to 0.1 µM in assay [2] (Homo sapiens) and 0.05 to 0.1 µM in assay [3] (Homo sapiens, HCC827, 72 h).
For the compound `C=CC(=O)Nc1cccc(Oc2nc(Nc3ccc(NC4CCN(C)CC4)c(Cl)c3)nc3ccsc23)c1` [Example 141], the half-inhibitory concentration (IC50) in assay [1] is no more than 0.05 µM; in assay [4], 0.05 to 0.1 µM.
As to `C=CC(=O)Nc1cccc(Oc2nc(Nc3ccc(N4CCC(N5CCCC5)CC4)cc3)nc3ccsc23)c1` [Example 47], the IC50 in assay [1] and in assay [4] was 0.05 to 0.1 µM throughout. Also, the GI50 in assay [2] (Homo sapiens) was less than 0.05 µM; in assay [3] (Homo sapiens, HCC827, 72 h), less than 0.05 µM.
Turning to `C=CC(=O)Nc1cccc(Oc2nc(Nc3ccc(C4CCCN(C)C4)cc3)nc3ccsc23)c1` (stereo not shown) [Example 55], the IC50 in assay [1] was 0.05 to 0.1 µM; in assay [4] it was no more than 0.05 µM. The GI50 in assay [2] (Homo sapiens) is less than 0.05 µM; in assay [3] (Homo sapiens, HCC827, 72 h), less than 0.05 µM.
In the case of `C=CC(=O)Nc1cccc(Oc2nc(Nc3ccc(S(N)(=O)=O)cc3)nc3ccsc23)c1` [Example 70], the IC50 in assay [1] and in assay [4] was no more than 0.05 µM throughout.
On to `C=CC(=O)Nc1cccc(Oc2nc(Nc3ccc(N4CCN(C(C)C)CC4)nc3)nc3ccsc23)c1` [Example 146], for which the IC50 in assay [1] and in assay [4] was 0.05 to 0.1 µM each time.
As for `C=CC(=O)Nc1cccc(Oc2nc(Nc3ccc(C4=NCCCN4)cc3)nc3ccsc23)c1` [Example 104], the IC50 in assay [1] and in assay [4] was no more than 0.05 µM in each case.
In the case of `C=CC(=O)Nc1cccc(Oc2nc(Nc3ccc(C(=O)N4CCN(C)CC4)cc3)nc3ccsc23)c1` [Example 89], the IC50 is no more than 0.05 µM in assay [1] and 0.05 to 0.1 µM in assay [4].
Regarding `C=CC(=O)Nc1cccc(Oc2nc(Nc3ccc(N4CCC(CO)CC4)cc3)nc3ccsc23)c1` [Example 40], the IC50 in assay [1] and in assay [4] was 0.05 to 0.1 µM in each case. The GI50 was 0.05 to 0.1 µM in assay [2] (Homo sapiens) and less than 0.05 µM in assay [3] (Homo sapiens, HCC827, 72 h).
`C=CC(=O)Nc1cccc(Oc2nc(Nc3ccc(S(=O)(=O)NC4CCN(C)CC4)cc3)nc3ccsc23)c1` [Example 73]: the IC50 in assay [1] was no more than 0.05 µM; in assay [4], 0.05 to 0.1 µM.
The matching figures for `C=CC(=O)Nc1cccc(Oc2nc(Nc3ccc(C(=O)N4CCC(NC)C4)cc3)nc3ccsc23)c1` (stereo not shown) [Example 85]: no more than 0.05 µM and no more than 0.05 µM.
Regarding `C=CC(=O)Nc1cccc(Oc2nc(Nc3ccc(CN4CCC(O)CC4)cc3)nc3ccsc23)c1` [Example 179], the IC50 in assay [1] and in assay [4] was no more than 0.05 µM throughout.
Consider `C=CC(=O)Nc1cccc(Oc2nc(Nc3ccc(C4CCN(C)CC4)c(F)c3)nc3ccsc23)c1` [Example 127], for which the IC50 in assay [1] and in assay [4] was 0.05 to 0.1 µM each time. Moreover, the GI50 was less than 0.05 µM in assay [2] (Homo sapiens) and less than 0.05 µM in assay [3] (Homo sapiens, HCC827, 72 h).
Turning to `C=CC(=O)Nc1cccc(Oc2nc(Nc3ccc(C(=O)N4CCN(C5CCN(C)CC5)CC4)cc3)nc3ccsc23)c1` [Example 91], the results for the IC50 in assay [1] and in assay [4] were no more than 0.05 µM and 0.05 to 0.1 µM, respectively.
With `C=CC(=O)Nc1cccc(Oc2nc(Nc3ccc(S(=O)(=O)NC4CCN(C(C)C)CC4)cc3)nc3ccsc23)c1` [Example 74], the IC50 in assay [1] was no more than 0.05 µM; in assay [4], 0.05 to 0.1 µM.
Regarding `C=CC(=O)Nc1cccc(Oc2nc(Nc3ccc([S+](C)[O-])cc3)nc3ccsc23)c1` (stereo not shown) [Example 68], the concentration for half-maximal inhibition (IC50) in assay [1] was 0.05 to 0.1 µM; in assay [4] it was no more than 0.05 µM.
Consider `C=CC(=O)Nc1cccc(Oc2nc(Nc3ccc(N4CCC(N5CCCC5)CC4)nc3)nc3ccsc23)c1` [Example 151], for which the IC50 in assay [1] and in assay [4] was 0.05 to 0.1 µM in each case.
As for `C=CC(=O)Nc1cccc(Oc2nc(Nc3ccc(C4C(=O)N(C)CCN4C)cc3)nc3ccsc23)c1` (stereo not shown) [Example 105], the IC50 is 0.05 to 0.1 µM in assay [1] and no more than 0.05 µM in assay [4].
The matching figures for `C=CC(=O)Nc1cccc(Oc2nc(Nc3ccc(N4CCC(N5CCCCC5)CC4)nc3)nc3ccsc23)c1` [Example 152]: no more than 0.05 µM and 0.05 to 0.1 µM.
For `C=CC(=O)Nc1cccc(Oc2nc(Nc3ccc(C(=O)N4CCOCC4)cc3)nc3ccsc23)c1` [Example 88], the IC50 in assay [1] and in assay [4] was 0.05 to 0.1 µM in each case.
In the case of `C=CC(=O)Nc1cccc(Oc2nc(Nc3ccc(N4CCN(C(=O)CN(C)C)CC4)cc3)nc3ccsc23)c1` [Example 21], the IC50 in assay [1] is no more than 0.05 µM; in assay [4], 0.05 to 0.1 µM.
The matching figures for `C=CC(=O)Nc1cccc(Oc2nc(Nc3ccc(P(=O)(OCC)OCC)cc3)nc3ccsc23)c1` [Example 67]: no more than 0.05 µM and no more than 0.05 µM.
The matching figures for `C=CC(=O)Nc1cccc(Oc2nc(Nc3ccc(CN4CCC(N(C)C)C4)cc3)nc3ccsc23)c1` (stereo not shown) [Example 177]: no more than 0.05 µM and no more than 0.05 µM.
